Measured values: patent publication US11185539B2 (priority 2017, dated 2021)

Columns and labels:
[1] = system: primary human cardiac fibroblasts (HCFs); assay: Proliferation of primary human cardiac fibroblasts, BrdU-ELISA; type: cell-based; conditions: 24 h; for proliferation of HCFs (derivative screen): 10 μM, DMSO solvent control; for proliferation of primary HCFs: 0.1, 1, 10 μM (Lycorine 1, 5, 10 μM), DMSO control
Description: HCFs were incubated with 0.1 μM, 1 μM and 10 μM Bufalin, Gitoxigenin, Anisomycin and Geldanamycin as well as with 1 μM, 5 μM and 10 μM Lycorine for 24 h and proliferation of HCFs was measured by BrdU-ELISA (see FIG. 1). Due to major drawbacks as a drug candidate, Geldanamycin was not included in the follow-up studies, in particular in the in vivo experiments.
(§1) HCFs and HL-1 cells were treated with Bufalin, Gitoxigenin, Lycorine and Anisomycin for 24 h with the same concentrations as indicated in Example 1 and proliferation of HCFs and cardiomyocyte cell line HL-1 cells was measured by BrdU-ELISA, DMSO refers as a control (see FIG. 2B, 3B, 4B, 5B). The cell proliferation ELISA is a colorimetric alternative to quantitate cell proliferation based on the measurement of BrdU incorporation during DNA synthesis in proliferating cells. After its incorporation into DNA, BrdU is detected by immunoassay by using antibodies being highly specific for BrdU. First, HCFs and/or HL-1 cells are cultured together with various dilutions of test substances (e.g. mitogens, growth factors, cytokines and test compounds such as Bufalin, Gitoxigenin, Lycorine and Anisomycin as mentioned above etc.) in a 96-well in a final volume of 100 μl/well in a humified atmosphere of 37° C. Afterwards, 10 μl/well BrdU labeling solution is added to the cells being cultured in 100 μl/well (final concentration: 10 μM BrdU). Then, cells were re-incubated for additional 2 to 24 h at 37° C. Next, labeling solution is removed and 200 μl/well FixDenat is added to the cells and incubated for 30 min at 15 to 25° C. Then, 100 μl/well anti-BrdU-POD working solution is added and incubated for approximately 90 min, after FixDenat is removed. Next, antibody conjugate is removed and wells are washed with 200 μl-300 μl/well Washing solution (PBS, 1×). After the washing solution is removed, 100 μl/well Substrate solution is added and it is incubated again until color development is sufficient for photometric detection. Further, HCFs were treated with said compounds (Lycorine: 5 μM, Bufalin: 1 μM, Gitoxigenin: 1 μM and Anisomycin: 1 μM) for 24 h as indicated again and subjected to FACS analysis after Annexin-7AAD-staining (see FIG. 2C, 3C, 4C, 5C). After the treatment with said compounds, annexin-7AAD-staining starts with inducing apoptosis in HCFs by a desired method, known to the person skilled in the art, a negative control (w/o induction and staining) and a positive control (f. ex. 500 μM H2O2 or 3 μM Staurosporin) is also needed. Then, the medium with HCFs is transferred into a falcon, washed with PBS and trypsinized. Everything is centrifuged for 5 min at 300×g and then the supernatant is aspirated. The pellet is re-suspended in 200 μl Annexin Red/7AAD Working Solution (1:20, 5 μl Annexin Red/7AAD+195 μl 1× Assay Buffer) and transferred into an Easy Cap Eppendorf tube. After incubation of 15 min at 37° C., it is centrifuged at room temperature (RT) for 5 min at 300×g. Then, the supernatant is aspirated, the pellet washed once with 200 μl 1× Assay Buffer and centrifuged again at RT for 5 min at 300×g. Again, the supernatant is aspirated and the pellet is re-suspended in 200 μl Annexin Red/7AAD working solution and incubated again at RT for 5 min in the dark. Samples are now ready for acquisition on a flow cytometer (blue and red laser).
The cells were incubated for 24 h with 10 μM Bufalin and Lycorine and with 10 μM derivatives of Bufalin (derivatives 3, 5, 6, 7, 8, 9, 10, 11, 12, 13, 14, 16, 17, 18 and 25) and Lycorine (derivative 1, 2, 4, 15, 19, 20, 21, 22, 23, 24 and 26). Then, proliferation of HCFs was measured by BrdU-ELISA (see FIG. 31).

[2] = system: Collagen1a1; assay: Collagen1a1 protein levels in HCFs, Western Blot; type: cell-based, human; conditions: Lycorine 5 μM, Bufalin, Gitoxigenin, Anisomycin 1 μM, 24 h, DMSO control
Description: Additionally, HCFs were treated with said compounds (Lycorine: 5 μM, Bufalin: 1 μM, Gitoxigenin: 1 μM and Anisomycin: 1 μM) for 24 h as indicated again, lysed and analyzed for extracellular matrix component Collagen1a1 protein levels in primary HCFs (normalized to GAPDH) by representative Western Blot, DMSO refers as a control (see FIG. 2D, 3D, 4D, 5D).

[3] = system: C57BL/6N mice with angiotensin II-induced diastolic heart failure; assay: Picrosirius-red collagen staining of heart sections, therapeutic model (eight weeks); type: in vivo; conditions: therapeutic: i.p. every other day from week 2 of angiotensin II; week 8
Description: Diastolic heart failure (HF) was induced in C57BL/6N mice via implantation of angiotensin II filled minipumps (see Example 3). In difference to Example 3, C57BL/6N mice were infused with 3 mg/kg/day angiotensin II by subcutaneously implanted minipumps for eight weeks.
Next, Bufalin or Lycorine (dissolved in DMSO) or the solvent DMSO alone (as control) were injected intraperitoneally (i.p) every other day until the endpoint, starting two weeks after start of angiotensin II-infusion (see FIG. 11).
Additionally, eight weeks after the operation, histological sections of the hearts were stained for collagen using picrosirius-red (n=7-12 per group) after treatment with Bufalin or Lycorine.

[4] = system: circular RNA CDR1as; assay: CDR1as expression in HCFs, qRT-PCR; type: cell-based, human; conditions: Lycorine 5 μM, others 1 μM, 24 h, vs DMSO
Description: Expression levels of CDR1as are increased in primary HCFs upon treatment with Bufalin, Gitoxigenin, Lycorine, Anisomycin and Geldanamycin. HCFs were incubated for 24 h with Bufalin (1 μM), Gitoxigenin (1 μM,) Lycorine (5 μM), Anisomycin (1 μM) and Geldanamycin (1 μM) and upregulation of CDR1as (normalized to 18S rRNA) by the respective compound was validated via qRT-PCR (see FIG. 22).

[5] = system: primary HCFs; assay: Cell death in HCFs, FACS after Annexin-7AAD-staining; type: cell-based, human; conditions: Lycorine 5 μM, Bufalin, Gitoxigenin, Anisomycin 1 μM, 24 h
Description: as §1, with “Then, the supernatant is aspirated, the pellet washed once with 200 μl 1× Assay Buffer and centrifuged again at RT for 5 min at 300×g. Again, the supernatant is aspirated and the pellet is re-suspended in 200 μl Annexin Red/7AAD working solution and incubated again at RT for 5 min in the dark.” left out

[6] = system: CDR1 mRNA; type: cell-based, human; conditions: Lycorine 5 μM, others 1 μM, 24 h, vs DMSO
Description: Expression levels of CDR1 mRNA change independently of miR-671-5p or CDR1as in primary HCFs upon treatment with Bufalin, Gitoxigenin, Lycorine, Anisomycin and Geldanamycin. HCFs were incubated for 24 h with Bufalin (1 μM), Gitoxigenin (1 μM,) Lycorine (5 μM), Anisomycin (1 μM) and Geldanamycin (1 μM) and impact on CDR1 mRNA level (normalized to GAPDH) by the respective compound was validated via qRT-PCR (see FIG. 23).

Structure (SMILES) | proliferation of HCFs (derivative screen) [1] | proliferation of primary HCFs [1] | expression levels of Collagen1a1 (normalized to GAPDH) [2] | collagen deposition in heart sections (picrosirius-stained areas) [3] | expression levels of CDR1as (normalized to 18S rRNA) [4] | cell death in primary HCFs (Annexin-7AAD-staining) [5] | expression levels of CDR1 mRNA (normalized to GAPDH) [6]
O[C@H]1[C@H]2c3cc4c(cc3CN3CCC(=C[C@@H]1O)[C@H]23)OCO4 [Lycorine] | proliferation is prevented | Dose-dependent inhibitory effects | decreases expression levels | reduction of collagen deposition | increase | does not induce cell death | decrease
C[C@]12CC[C@H](O)C[C@H]1CC[C@@H]1[C@@H]2CC[C@]2(C)[C@@H](C3=CC(=O)OC3)[C@@H](O)C[C@]12O [Gitoxigenin] |  | Dose-dependent inhibitory effects | decreases expression levels |  | increase | does not induce cell death | decrease
COc1ccc(C[C@H]2NC[C@H](O)[C@H]2OC(C)=O)cc1 [Anisomycin] |  | Dose-dependent inhibitory effects | decreases expression levels |  | increase | does not induce cell death | decrease
C[C@]12CC[C@H](O)C[C@H]1CC[C@@H]1[C@@H]2CC[C@]2(C)[C@@H](c3ccc(=O)oc3)CC[C@]12O [Bufalin] | proliferation is prevented | Dose-dependent inhibitory effects | decreases expression levels | reduction of collagen deposition | increase | does not induce cell death | decrease
